Experiments:
[1] = system: LD1 and LD5; assay: Screening of amphiphiles for ability to discriminate between LD1 and LD5; details: range of amphiphile concentrations; relative activity vs buffer
Description: A series of solutions was prepared covering a range of concentrations for each amphiphile to be tested. The activities of both LD1 and LD5 were determined in the presence of the various concentrations of each amphiphile and compared with enzyme activities in buffer (relative activity).
Enzyme activity in the presence and absence of amphiphile was measured by the following procedure: Stock solutions of NADH (4 mM) and pyruvate (40 mM) were prepared daily in 30 mM sodium phosphate buffer, pH 7.4. Enzyme solutions were prepared daily by withdrawing 5 μl of the stock enzyme solutions with a Hamilton syringe and diluting to 5 ml with 30 mM sodium phosphate buffer. (The resulting solution contains approximately 5 U of enzyme/ml.) The enzyme assay was run by pipetting 2.7 ml of buffer or buffer surfactant solution into a 10 mm path length quartz cuvette, and 100 μl each of NADH and pyruvate stock solutions were added. […] Enzyme solution was added with good mixing; the absorbance decrease at 340 nm was measured as a function of time. The rate of the reaction was determined by measuring the slope of the initial absorbance decrease, i.e., within the first 50 seconds of the reaction.

[2] = target: LD1 (Sus scrofa, UniProt P00336); assay: Effect of cationic amphiphiles on the activity of LDH isoenzymes (Table 1); format: biochemical; details: 30 mM sodium phosphate buffer pH 7.4, 25° C.; read-out: Amphiphile conc. Req'd for 50% Inactivation of Specified Isoenzyme (LD1)
Description: (§1) The assay for LDH activity in both the absence and presence of surfactant was conducted as follows. […] The resulting solution contains approximately 5 units/ml. […] To the equilibrated solution […]. of the enzyme solution was added, and the cuvette was rapidly shaken while covering the top of the cuvette with a small piece of Parafilm® and placed back into the spectrophotometer.
(§2) Amphiphile solutions were prepared by weighing out a given amount of amphiphile, e.g., 100 mg, and preparing a stock solution in 30 mM sodium phosphate buffer in 100 ml. volumetric flask. Solutions of lower amphiphile concentration were prepared by making the appropriate dilutions from the stock solution.
A number of cationic amphiphiles were investigated for specific inactivation of LD1 in the presence of LD5 and these compounds are listed in Table 1.

[3] = target: T1, LDH isoenzymes (LD5 in the presence of LD1) (Oryctolagus cuniculus, UniProt P13491); assay: Anionic amphiphiles tested for specific interaction with LDH isoenzymes (Table 2); format: biochemical
T1 construct: LD1 (LDHB tetramer) only as comparison
Description: as §1, §2
A number of anionic amphiphiles were investigated for specific inactivation of LD5 in the presence of LD1 and these compounds are listed in Table 2.

[4] = system: LD1; assay: LDH activity assay with amphiphile, LDH isoenzymes; format: biochemical, porcine; details: FIG. 12
Description: 3. Beef heart LDH (Sigma Chemical Co., Type III), rabbit muscle LDH (Sigma Chemical Co., Type V) and porcine LDH, LD1, LD2, LD3, LD4 and LD5 in the form of ammonium sulfate suspensions were used for these examples.
as §1, §2

LD1 (Sus scrofa, UniProt P00336), sequence (P00336 whole entry): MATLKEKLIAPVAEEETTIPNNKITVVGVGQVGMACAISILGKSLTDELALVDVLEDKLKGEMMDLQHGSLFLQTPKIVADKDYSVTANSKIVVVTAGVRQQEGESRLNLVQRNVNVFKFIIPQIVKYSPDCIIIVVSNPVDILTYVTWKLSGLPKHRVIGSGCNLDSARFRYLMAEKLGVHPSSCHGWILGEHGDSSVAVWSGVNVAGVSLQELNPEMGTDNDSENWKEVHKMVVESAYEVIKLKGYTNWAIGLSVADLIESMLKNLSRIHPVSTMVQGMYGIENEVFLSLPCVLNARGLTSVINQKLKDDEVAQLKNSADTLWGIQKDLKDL

Molecule | Effectiveness (LDH isoenzyme inhibition specificity, LD1 vs LD5) [1] | other results
CCCCCCCCCCCC(=O)[O-].[Na+] [Sodium dodecanoate] | 0 | –
CCCCCCCCOS(=O)(=O)[O-].[Na+] [Sodium octyl sulfate] | + | –
CCCCCCCCCCCCCCCCCC(=O)[O-].[Na+] [Sodium stearate] | 0 | –
CCCCCCCCCCCCCCOS(=O)(=O)[O-].[Na+] [Sodium tetradecylsulfate] | ++ | –
CCCCCCCC[N+](CCC)(CCCCCCCC)CCCCCCCC.[Br-] [Trioctylpropylammonium bromide] | 0 | IC50 [2]: 1600 µM
C[C@H](CCC(=O)O)[C@H]1CC[C@H]2[C@@H]3C(=O)C[C@@H]4CC(=O)CC[C@]4(C)[C@H]3CC(=O)[C@]12C [dehydrocholic acid] | – | Interaction (specific inactivation of LD5 in the presence of LD1) [3]: no effect
CCCCCCCCCCCC(=O)O [lauric acid] | – | Interaction (specific inactivation of LD5 in the presence of LD1) [3]: no effect
CCCCCCCCCCCCCCCCCC(=O)[O-].[Li+] [lithium stearate] | – | Interaction (specific inactivation of LD5 in the presence of LD1) [3]: no effect
Heparin | + | inactivation of LD1 compared with LD5 [4]: LD1 is more inactivated than LD5
Sodium isopropylnaphthalene sulfonate | + | –
Sodium n-decyldiphenylether disulfonate | ++ | –
octylphenolpoly(1-oxapropene)oxaethane carboxylic acid sodium salt | 0 | –

— patent publication US4250255A, “Assay method for isoenzyme activity” (Eastman Kodak Company, priority 1977, dated 1981)
